# In patent publication US7445765B2, “Radiopharmaceutical for diagnostic imaging containing a technetium-99m nitride heterocomplex” (Nihon Medi-Physics Co., Ltd., priority 2000, dated 2008):
# Assay: Biodistribution of the 99mTc(N) heterocomplexes in rats (organ uptake, heart accumulation, heart/lung and heart/liver ratios)
# Format: in vivo, female Sprague-Dawley rats
# Conditions: rats
# Description: The biodistribution was measured by using female Sprague-Dawley rats (SD rats) weighing 200 g to 250 g. Each of the ^99mTc(N) heterocomplexes purified in the manner described above was diluted with phosphate buffer (0.1 M, pH=7.4) to obtain a final solution having an ethanol content of 10%. After the SD rats were anesthetized with an intramuscular injection of a mixture of ketamine (80 mg/kg) and xilazine (19 mg/kg), the jugular vein of each rat was surgically exposed and 100 μL (300 to 370 kBq) of the solution containing each ^99mTc(N) heterocomplexes prepared in the manner described above was injected in the jugular vein. The rats (n=3) were sacrificed by cervical dislocation at different times post injection. The blood was withdrawn from the heart through a syringe and counted. It was assumed that the whole blood content was 6.5% of the total body weight. The organs were excised from the rats, washed with physiological saline, weighed, and counted in a NaI well counter.
# For comparison, Tables 19 and 20 show the results, obtained in the same manner as above, of measuring the biodistribution of (^99mTc) (MIBI) and (^99mTc) (Tf) which have been used as pharmaceuticals for diagnostic imaging for blood flow in myocardium.
# Tables 21 to 23 show data showing the variations with time of heart accumulation, heart/lung ratios and heart/liver ratios for the ^99mTc(N) heterocomplexes of the present invention.
compound,measurement,setting,value
CCOCCN(CCOCC)C1=[S][99Tc+]2(#[N])([S]1)[P](CCCOC)(CCCOC)CCN(CCOC)CC[P]2(CCCOC)CCCOC [[^99m−Tc(N) (PNP3) (DBODC)^+]],Heart accumulation,0 min,3.57 ± 0.14 % ID/g
same,Heart/liver ratio in biodistribution,0 min,2.45
same,Heart/lung ratio in biodistribution,0 min,2.32
same,Heart accumulation,2 min,3.42 ± 0.19 % ID/g
same,Heart/liver ratio in biodistribution,2 min,1.99
same,Heart/lung ratio in biodistribution,2 min,3.39
same,Heart accumulation,10 min,3.65 ± 0.56 % ID/g
same,Heart/liver ratio in biodistribution,10 min,2.55
same,Heart/lung ratio in biodistribution,10 min,4.74
same,Heart accumulation,20 min,3.32 ± 0.18 % ID/g
same,Heart/liver ratio in biodistribution,20 min,3.82
same,Heart/lung ratio in biodistribution,20 min,3.95
same,Heart accumulation,30 min,3.27 ± 0.36 % ID/g
same,Heart/liver ratio in biodistribution,30 min,7.79
same,Heart/lung ratio in biodistribution,30 min,4.74
same,Heart accumulation,60 min,3.27 ± 0.62 % ID/g
same,Heart/liver ratio in biodistribution,60 min,20.44
same,Heart/lung ratio in biodistribution,60 min,9.60
same,Heart accumulation,120 min,3.00 ± 0.42 % ID/g
same,Heart/liver ratio in biodistribution,120 min,25.01
same,Heart/lung ratio in biodistribution,120 min,11.10
CCOCCN1CC[P](CCCOC)(CCCOC)[99Tc+]2(#[N])([S]C(N(CCOCC)CCOCC)=[S]2)[P](CCCOC)(CCCOC)CC1 [[^99mTc(N) (PNP5) (DBODC)^+]],Heart/liver ratio in biodistribution,0 min,6.11
same,Heart/lung ratio in biodistribution,0 min,0.76
same,Heart/liver ratio in biodistribution,2 min,1.48
same,Heart/lung ratio in biodistribution,2 min,3.98
same,Heart/liver ratio in biodistribution,10 min,2.29
same,Heart/lung ratio in biodistribution,10 min,4.19
same,Heart/liver ratio in biodistribution,20 min,3.78
same,Heart/lung ratio in biodistribution,20 min,6.37
same,Heart/liver ratio in biodistribution,30 min,5.18
same,Heart/lung ratio in biodistribution,30 min,5.83
same,Heart/liver ratio in biodistribution,60 min,18.8
same,Heart/lung ratio in biodistribution,60 min,8.17
same,Heart/liver ratio in biodistribution,120 min,33.1
same,Heart/lung ratio in biodistribution,120 min,13.24
CCOCCN1CC[P](CCCOC)(CCCOC)[99Tc+]2(#[N])([S]C(N(CCOCC)C(C)C)=[S]2)[P](CCCOC)(CCCOC)CC1 [[^99mTc(N) (PNP5) (ISOET)^+]],Heart/liver ratio in biodistribution,0 min,3.53
same,Heart/lung ratio in biodistribution,0 min,1.37
same,Heart/liver ratio in biodistribution,2 min,0.83
same,Heart/lung ratio in biodistribution,2 min,3.15
same,Heart/liver ratio in biodistribution,10 min,1.90
same,Heart/lung ratio in biodistribution,10 min,3.99
same,Heart/liver ratio in biodistribution,20 min,2.62
same,Heart/lung ratio in biodistribution,20 min,5.72
same,Heart/liver ratio in biodistribution,30 min,2.33
same,Heart/lung ratio in biodistribution,30 min,5.49
same,Heart/liver ratio in biodistribution,60 min,6.37
same,Heart/lung ratio in biodistribution,60 min,7.83
same,Heart/liver ratio in biodistribution,120 min,10.61
same,Heart/lung ratio in biodistribution,120 min,11.09
CCOCCC[P]1(CCCOCC)CCN(CCOCC)CC[P](CCCOCC)(CCCOCC)[99Tc+]12(#[N])[S]C(N(CCOCC)CCOCC)=[S]2 [[^99mTc(N) (PNP6) (DBODC)^+]],Heart/liver ratio in biodistribution,0 min,0.63
same,Heart/lung ratio in biodistribution,0 min,0.58
same,Heart/liver ratio in biodistribution,2 min,0.21
same,Heart/lung ratio in biodistribution,2 min,0.99
same,Heart/liver ratio in biodistribution,10 min,0.18
same,Heart/lung ratio in biodistribution,10 min,1.26
same,Heart/liver ratio in biodistribution,20 min,0.18
same,Heart/lung ratio in biodistribution,20 min,1.48
same,Heart/liver ratio in biodistribution,30 min,0.23
same,Heart/lung ratio in biodistribution,30 min,1.75
same,Heart/liver ratio in biodistribution,60 min,0.31
same,Heart/lung ratio in biodistribution,60 min,2.29
same,Heart/liver ratio in biodistribution,120 min,0.51
same,Heart/lung ratio in biodistribution,120 min,3.91
CCOCCC[P]1(CCCOCC)CCN(CCOCC)CC[P](CCCOCC)(CCCOCC)[99Tc+]12(#[N])[S]C(N(CCOCC)CCOCC)=[S]2 [PNP6•DBODC],"Biodistribution, Adrenal glands",0 min,2.60 % dose/g
same,"Biodistribution, Blood",0 min,1.42 % dose/g
same,"Biodistribution, Brain",0 min,0.18 % dose/g
same,"Biodistribution, Heart",0 min,2.26 % dose/g
same,"Biodistribution, Intestine",0 min,2.91 % dose/g
same,"Biodistribution, Kidneys",0 min,5.56 % dose/g
same,"Biodistribution, Liver",0 min,3.59 % dose/g
same,"Biodistribution, Lungs",0 min,3.87 % dose/g
same,"Biodistribution, Muscle",0 min,0.06 % dose/g
same,"Biodistribution, Spleen",0 min,1.68 % dose/g
same,"Biodistribution, Submax. glands",0 min,1.17 % dose/g
same,"Biodistribution, Adrenal glands",2 min,3.49 % dose/g
same,"Biodistribution, Blood",2 min,0.17 % dose/g
same,"Biodistribution, Brain",2 min,0.03 % dose/g
same,"Biodistribution, Heart",2 min,1.241 % dose/g
same,"Biodistribution, Intestine",2 min,3.54 % dose/g
same,"Biodistribution, Kidneys",2 min,9.57 % dose/g
same,"Biodistribution, Liver",2 min,5.94 % dose/g
same,"Biodistribution, Lungs",2 min,1.25 % dose/g
same,"Biodistribution, Muscle",2 min,0.17 % dose/g
same,"Biodistribution, Spleen",2 min,3.85 % dose/g
same,"Biodistribution, Submax. glands",2 min,1.26 % dose/g
same,"Biodistribution, Adrenal glands",10 min,4.48 % dose/g
same,"Biodistribution, Blood",10 min,0.06 % dose/g
same,"Biodistribution, Brain",10 min,0.03 % dose/g
same,"Biodistribution, Heart",10 min,1.39 % dose/g
same,"Biodistribution, Intestine",10 min,6.21 % dose/g
same,"Biodistribution, Kidneys",10 min,9.80 % dose/g
same,"Biodistribution, Liver",10 min,7.71 % dose/g
same,"Biodistribution, Lungs",10 min,1.10 % dose/g
same,"Biodistribution, Muscle",10 min,0.16 % dose/g
same,"Biodistribution, Spleen",10 min,4.00 % dose/g
same,"Biodistribution, Submax. glands",10 min,1.27 % dose/g
same,"Biodistribution, Adrenal glands",20 min,3.19 % dose/g
same,"Biodistribution, Blood",20 min,0.03 % dose/g
same,"Biodistribution, Brain",20 min,0.03 % dose/g
same,"Biodistribution, Heart",20 min,1.18 % dose/g
same,"Biodistribution, Intestine",20 min,8.54 % dose/g
same,"Biodistribution, Kidneys",20 min,8.18 % dose/g
same,"Biodistribution, Liver",20 min,6.55 % dose/g
same,"Biodistribution, Lungs",20 min,0.80 % dose/g
same,"Biodistribution, Muscle",20 min,0.09 % dose/g
same,"Biodistribution, Spleen",20 min,3.13 % dose/g
same,"Biodistribution, Submax. glands",20 min,1.03 % dose/g
same,"Biodistribution, Adrenal glands",30 min,3.08 % dose/g
same,"Biodistribution, Blood",30 min,0.05 % dose/g
same,"Biodistribution, Brain",30 min,0.02 % dose/g
same,"Biodistribution, Heart",30 min,1.05 % dose/g
same,"Biodistribution, Intestine",30 min,7.75 % dose/g
same,"Biodistribution, Kidneys",30 min,7.52 % dose/g
same,"Biodistribution, Liver",30 min,4.66 % dose/g
same,"Biodistribution, Lungs",30 min,0.60 % dose/g
same,"Biodistribution, Muscle",30 min,0.11 % dose/g
same,"Biodistribution, Spleen",30 min,2.43 % dose/g
same,"Biodistribution, Submax. glands",30 min,1.08 % dose/g
same,"Biodistribution, Adrenal glands",60 min,3.49 % dose/g
same,"Biodistribution, Blood",60 min,0.02 % dose/g
same,"Biodistribution, Brain",60 min,0.01 % dose/g
same,"Biodistribution, Heart",60 min,1.10 % dose/g
same,"Biodistribution, Intestine",60 min,8.37 % dose/g
same,"Biodistribution, Kidneys",60 min,6.60 % dose/g
same,"Biodistribution, Liver",60 min,3.55 % dose/g
same,"Biodistribution, Lungs",60 min,0.48 % dose/g
same,"Biodistribution, Muscle",60 min,0.12 % dose/g
same,"Biodistribution, Spleen",60 min,2.64 % dose/g
same,"Biodistribution, Submax. glands",60 min,1.30 % dose/g
same,"Biodistribution, Adrenal glands",120 min,3.47 % dose/g
same,"Biodistribution, Blood",120 min,0.02 % dose/g
same,"Biodistribution, Brain",120 min,0.01 % dose/g
same,"Biodistribution, Heart",120 min,1.29 % dose/g
same,"Biodistribution, Intestine",120 min,9.70 % dose/g
same,"Biodistribution, Kidneys",120 min,8.83 % dose/g
same,"Biodistribution, Liver",120 min,2.55 % dose/g
same,"Biodistribution, Lungs",120 min,0.33 % dose/g
same,"Biodistribution, Muscle",120 min,0.14 % dose/g
same,"Biodistribution, Spleen",120 min,2.02 % dose/g
same,"Biodistribution, Submax. glands",120 min,1.36 % dose/g
